Data as given in ChEMBL document CHEMBL3639060, “Tetrahydropyrido-pyridine and tetrahydropyrido-pyrimidine compounds and use thereof as C5a receptor modulators” (2014).

Target: T1, C5a anaphylatoxin chemotactic receptor 1 (Homo sapiens, UniProt P21730)
T1 sequence (P21730 whole entry): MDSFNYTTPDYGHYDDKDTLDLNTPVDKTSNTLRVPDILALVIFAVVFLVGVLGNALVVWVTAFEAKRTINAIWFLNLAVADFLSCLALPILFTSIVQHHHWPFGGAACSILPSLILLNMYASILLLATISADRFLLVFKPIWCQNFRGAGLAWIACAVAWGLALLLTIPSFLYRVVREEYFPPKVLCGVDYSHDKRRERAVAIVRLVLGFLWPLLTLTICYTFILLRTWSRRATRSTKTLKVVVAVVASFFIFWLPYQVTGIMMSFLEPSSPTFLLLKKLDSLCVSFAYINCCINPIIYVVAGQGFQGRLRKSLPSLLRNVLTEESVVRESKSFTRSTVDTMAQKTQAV
Experiment: FLIPR Assay: Compounds were tested for their ability to inhibit C5a-mediated calcium mobilization using a stable cell line over expressing the human C5aR & the Galpha 15 protein on the FLIPR (Fluorescent Imaging Plate Reader) Tetra system. Cells were maintained in culture media containing DMEM (Dulbecco's Modified Eagle Medium) with 4.5 g/L glucose, 10% fetal bovine serum, 100 U/mL, 1x non-essential amino acid, and 250 ug/mL G418 (Geneticin). Prior to testing of compounds, cells were plated at 10,000 cells/well in clear bottom 384-well black plate, and incubated overnight at 37C. with 5% CO2. On the day of experiment, culture media was removed, and replaced with assay buffer HBSS (Hanks' Balanced Salt Solution) with 20 mM HEPES (4-(2-hydroxyethyl)-1-piperazineethanesulfonic acid) and 0.1% BSA (bovine serum albumin) BSA containing calcium 5 dye (Molecular Devices) and 2.5 mM probenecid. After 1 hour incubation at 37C., 5% CO2 for 60 min, cells were pre-incubated with compounds for 30 minutes.
Type: functional

With `CO[C@H]1CCN(c2nc(-c3c(Cl)cnc4[nH]ccc34)nc3c2CN(c2cc(C4CC4)ccc2C)CC3)CC1(C)C` the IC50 was 0.047 µM.
`CO[C@@H]1CCN(c2nc(-c3c(C)ccc4[nH]nc(C)c34)nc3c2CN(c2c(Cl)c(C(C)C)nn2C)CC3)[C@H](C)C1` gave an IC50 of 0.002 µM.
